# Assay results as given in patent US20240217918A1 (APNIMED, INC. (DELAWARE), priority 2021, published 2024).
# Test: Gravimetric vapor sorption (GVS)
# Type: physicochemical
# Conditions: 25° C.
# Description: GVS experiments were conducted on a Surface Measurement Systems DVS-Advantage. The experiments were performed at 25° C. The instrument was operated in step mode and the relative humidity was increased in 10% RH increments from 0% RH to 90% RH with an extra step at 75% RH, then decreased from 90% RH to 0% RH with an extra step at 75% RH. The mass equilibrium criterion was set at 0.005% change in mass over time (dm/dt). A minimum step time of 15 minutes and a maximum step time of 240 minutes were specified.
structure (smiles),measurement,setting,value
"CCN(CC)CC#CCOC(=O)[C@](O)(c1ccccc1)C1CCCCC1 [Form A, (R)-oxybutynin D-malate]",hygroscopicity,"GVS, 0-90% RH",non-hygroscopic solid
same,moisture uptake,"GVS, between 0-90% RH",0.1%
same,change in crystal form after the GVS test,after GVS cycle 0-90-0% RH,No change in crystal form was observed
